From paper PMC9927415, “Tyrosine Kinase Inhibitors Display Potent Activity against Cryptosporidium parvum” (Microbiology Spectrum, 2022) come the findings set out here.

The inhibition is the percentage by which the read-out fell short of the control.

Test in all cases: KINOMEscan competitive binding
In one assay the target is T1, TIE2 (Homo sapiens, UniProt Q02763).
T1 construct: purchased DiscoverX (KINOMEscan)
Conditions: n=1, read-out: Percent inhibition, TIE2.

In the next assay the target is T2, PTK2B (Homo sapiens, UniProt Q14289).
T2 construct: purchased DiscoverX (KINOMEscan)
T2 sequence (Q14289 whole entry): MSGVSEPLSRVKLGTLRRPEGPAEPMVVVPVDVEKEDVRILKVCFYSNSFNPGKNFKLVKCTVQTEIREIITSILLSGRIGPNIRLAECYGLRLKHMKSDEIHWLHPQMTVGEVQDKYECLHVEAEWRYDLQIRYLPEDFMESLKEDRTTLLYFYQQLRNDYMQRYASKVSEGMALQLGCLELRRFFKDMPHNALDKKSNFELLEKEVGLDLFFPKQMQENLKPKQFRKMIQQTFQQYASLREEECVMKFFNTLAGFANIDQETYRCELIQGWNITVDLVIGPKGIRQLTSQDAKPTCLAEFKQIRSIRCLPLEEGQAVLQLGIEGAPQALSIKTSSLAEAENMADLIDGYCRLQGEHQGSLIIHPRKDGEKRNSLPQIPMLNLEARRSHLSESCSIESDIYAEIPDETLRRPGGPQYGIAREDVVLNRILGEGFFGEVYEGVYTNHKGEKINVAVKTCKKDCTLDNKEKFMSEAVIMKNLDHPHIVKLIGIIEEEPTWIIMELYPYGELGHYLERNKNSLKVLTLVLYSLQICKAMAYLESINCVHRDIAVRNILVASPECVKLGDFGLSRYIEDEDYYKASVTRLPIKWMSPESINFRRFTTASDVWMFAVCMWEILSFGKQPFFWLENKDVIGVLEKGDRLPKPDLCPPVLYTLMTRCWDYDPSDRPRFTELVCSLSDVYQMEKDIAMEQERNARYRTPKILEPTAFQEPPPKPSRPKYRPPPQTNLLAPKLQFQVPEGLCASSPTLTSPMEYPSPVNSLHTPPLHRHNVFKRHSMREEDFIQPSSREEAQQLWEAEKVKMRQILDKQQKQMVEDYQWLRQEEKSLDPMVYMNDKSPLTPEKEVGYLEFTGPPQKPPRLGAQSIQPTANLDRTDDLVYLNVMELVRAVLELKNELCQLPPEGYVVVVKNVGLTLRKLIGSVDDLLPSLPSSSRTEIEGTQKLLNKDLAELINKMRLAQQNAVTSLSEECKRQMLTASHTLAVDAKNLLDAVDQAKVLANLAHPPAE
Conditions: n=1, read-out: Percent inhibition, PTK2B.

The target in another assay is T3, ZAP70 (Homo sapiens, UniProt P43403).
T3 construct: purchased DiscoverX (KINOMEscan)
T3 sequence (P43403 1-619): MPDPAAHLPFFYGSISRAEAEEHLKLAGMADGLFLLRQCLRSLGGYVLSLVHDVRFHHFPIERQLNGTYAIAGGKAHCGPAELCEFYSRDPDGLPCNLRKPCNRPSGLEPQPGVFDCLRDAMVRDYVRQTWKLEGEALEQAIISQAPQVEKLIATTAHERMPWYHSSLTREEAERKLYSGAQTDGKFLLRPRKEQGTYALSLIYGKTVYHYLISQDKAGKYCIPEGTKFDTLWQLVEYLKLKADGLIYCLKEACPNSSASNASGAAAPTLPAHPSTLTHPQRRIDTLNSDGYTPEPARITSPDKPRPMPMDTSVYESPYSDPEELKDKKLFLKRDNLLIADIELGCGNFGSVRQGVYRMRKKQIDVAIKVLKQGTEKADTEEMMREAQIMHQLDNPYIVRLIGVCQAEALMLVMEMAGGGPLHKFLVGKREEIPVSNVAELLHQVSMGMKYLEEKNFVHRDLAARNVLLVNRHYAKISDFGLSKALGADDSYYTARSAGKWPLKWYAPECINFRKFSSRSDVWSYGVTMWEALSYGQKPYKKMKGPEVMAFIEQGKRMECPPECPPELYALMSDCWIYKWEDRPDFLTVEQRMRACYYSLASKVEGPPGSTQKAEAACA
Particulars: n=1, read-out: Percent inhibition, ZAP70.

In another assay the target is T4, SYK (Homo sapiens, UniProt P43405).
T4 construct: purchased DiscoverX (KINOMEscan)
Particulars: n=1, read-out: Percent inhibition, SYK.

For the next assay, the target named is T5, TESK1 (Homo sapiens, UniProt Q15569).
T5 construct: purchased DiscoverX (KINOMEscan)
T5 sequence (Q15569 whole entry): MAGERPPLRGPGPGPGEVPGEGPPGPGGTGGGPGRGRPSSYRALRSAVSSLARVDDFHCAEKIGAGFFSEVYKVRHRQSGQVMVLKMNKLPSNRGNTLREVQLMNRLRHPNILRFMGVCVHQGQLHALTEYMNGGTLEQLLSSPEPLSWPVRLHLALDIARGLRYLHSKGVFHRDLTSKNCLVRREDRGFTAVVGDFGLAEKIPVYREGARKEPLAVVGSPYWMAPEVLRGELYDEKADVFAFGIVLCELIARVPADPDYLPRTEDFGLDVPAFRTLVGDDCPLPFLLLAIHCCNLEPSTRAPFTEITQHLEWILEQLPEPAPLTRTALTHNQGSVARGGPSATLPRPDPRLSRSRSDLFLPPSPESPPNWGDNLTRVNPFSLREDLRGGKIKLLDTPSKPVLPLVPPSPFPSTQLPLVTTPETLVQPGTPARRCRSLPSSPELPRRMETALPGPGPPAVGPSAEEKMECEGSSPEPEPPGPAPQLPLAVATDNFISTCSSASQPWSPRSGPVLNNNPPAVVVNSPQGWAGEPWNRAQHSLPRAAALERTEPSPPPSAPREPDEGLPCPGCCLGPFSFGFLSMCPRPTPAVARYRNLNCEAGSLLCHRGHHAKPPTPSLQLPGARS
Particulars: n=1, read-out: Percent inhibition, TESK1.

In a further assay the target is T6, PTK2 (Homo sapiens, UniProt Q05397).
T6 construct: purchased DiscoverX (KINOMEscan)
T6 sequence (Q05397 whole entry): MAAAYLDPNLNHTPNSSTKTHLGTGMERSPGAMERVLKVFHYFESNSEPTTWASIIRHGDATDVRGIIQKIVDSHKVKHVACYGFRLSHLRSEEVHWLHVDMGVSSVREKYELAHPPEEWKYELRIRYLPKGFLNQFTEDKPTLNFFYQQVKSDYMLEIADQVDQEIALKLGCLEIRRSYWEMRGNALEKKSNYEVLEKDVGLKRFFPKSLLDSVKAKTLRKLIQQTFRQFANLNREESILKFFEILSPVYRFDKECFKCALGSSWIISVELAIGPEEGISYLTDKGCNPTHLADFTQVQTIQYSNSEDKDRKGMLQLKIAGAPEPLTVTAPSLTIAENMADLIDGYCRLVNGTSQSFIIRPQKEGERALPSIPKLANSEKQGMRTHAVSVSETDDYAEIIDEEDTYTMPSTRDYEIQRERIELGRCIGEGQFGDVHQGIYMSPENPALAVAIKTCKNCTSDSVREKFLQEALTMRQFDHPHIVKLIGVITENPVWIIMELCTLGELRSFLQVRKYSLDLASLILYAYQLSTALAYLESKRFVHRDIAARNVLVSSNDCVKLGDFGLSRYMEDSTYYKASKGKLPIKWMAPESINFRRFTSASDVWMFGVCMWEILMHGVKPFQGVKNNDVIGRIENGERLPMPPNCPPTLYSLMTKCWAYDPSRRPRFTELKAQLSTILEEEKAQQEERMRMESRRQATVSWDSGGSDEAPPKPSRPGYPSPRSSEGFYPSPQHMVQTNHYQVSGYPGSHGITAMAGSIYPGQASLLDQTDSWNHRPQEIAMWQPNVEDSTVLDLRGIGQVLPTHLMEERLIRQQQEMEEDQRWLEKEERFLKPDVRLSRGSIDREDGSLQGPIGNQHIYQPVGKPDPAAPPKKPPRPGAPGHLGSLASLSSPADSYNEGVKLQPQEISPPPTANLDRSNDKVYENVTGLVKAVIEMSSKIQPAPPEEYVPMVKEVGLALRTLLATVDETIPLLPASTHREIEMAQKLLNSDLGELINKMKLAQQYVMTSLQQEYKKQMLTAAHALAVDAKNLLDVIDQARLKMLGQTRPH
Particulars: n=1, read-out: Percent inhibition, PTK2.

For another assay, the target named is T7, RAF1 (Homo sapiens, UniProt P04049).
T7 construct: purchased DiscoverX (KINOMEscan)
T7 sequence (P04049 whole entry): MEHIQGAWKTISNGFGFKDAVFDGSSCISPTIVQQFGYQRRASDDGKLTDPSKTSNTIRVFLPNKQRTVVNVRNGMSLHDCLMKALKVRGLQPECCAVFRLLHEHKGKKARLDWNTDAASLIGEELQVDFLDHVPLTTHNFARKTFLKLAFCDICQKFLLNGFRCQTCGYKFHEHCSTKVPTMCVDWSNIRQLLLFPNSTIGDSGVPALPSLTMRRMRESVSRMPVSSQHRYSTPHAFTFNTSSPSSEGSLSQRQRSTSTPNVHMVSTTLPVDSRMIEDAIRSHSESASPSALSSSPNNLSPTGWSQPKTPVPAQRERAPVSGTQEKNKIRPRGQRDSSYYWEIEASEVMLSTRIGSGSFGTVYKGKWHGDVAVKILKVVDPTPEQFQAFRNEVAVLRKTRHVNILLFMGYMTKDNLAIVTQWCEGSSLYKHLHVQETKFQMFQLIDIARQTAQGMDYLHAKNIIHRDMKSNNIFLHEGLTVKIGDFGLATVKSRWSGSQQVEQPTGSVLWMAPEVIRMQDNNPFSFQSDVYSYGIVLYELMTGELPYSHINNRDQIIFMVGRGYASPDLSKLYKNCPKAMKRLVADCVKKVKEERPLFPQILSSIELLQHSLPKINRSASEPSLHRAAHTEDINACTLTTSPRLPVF
Conditions: n=1, read-out: Percent inhibition, RAF1.

The next assay addresses T8, PRKX (Homo sapiens, UniProt P51817).
T8 construct: purchased DiscoverX (KINOMEscan)
T8 sequence (P51817 1-358): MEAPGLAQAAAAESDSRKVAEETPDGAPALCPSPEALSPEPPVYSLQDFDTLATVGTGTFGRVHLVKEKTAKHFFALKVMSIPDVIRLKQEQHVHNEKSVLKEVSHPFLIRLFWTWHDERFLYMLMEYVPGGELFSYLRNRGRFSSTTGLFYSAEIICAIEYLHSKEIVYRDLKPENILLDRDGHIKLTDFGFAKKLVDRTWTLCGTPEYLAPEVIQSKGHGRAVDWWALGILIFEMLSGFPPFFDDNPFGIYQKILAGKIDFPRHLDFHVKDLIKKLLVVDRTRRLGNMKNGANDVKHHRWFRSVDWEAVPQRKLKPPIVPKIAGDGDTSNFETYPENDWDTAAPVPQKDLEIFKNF
Particulars: n=1, read-out: Percent inhibition, PRKX.

The target of another assay is T9, PRKG1 (Homo sapiens, UniProt Q13976).
T9 construct: purchased DiscoverX (KINOMEscan)
T9 sequence (Q13976 1-671): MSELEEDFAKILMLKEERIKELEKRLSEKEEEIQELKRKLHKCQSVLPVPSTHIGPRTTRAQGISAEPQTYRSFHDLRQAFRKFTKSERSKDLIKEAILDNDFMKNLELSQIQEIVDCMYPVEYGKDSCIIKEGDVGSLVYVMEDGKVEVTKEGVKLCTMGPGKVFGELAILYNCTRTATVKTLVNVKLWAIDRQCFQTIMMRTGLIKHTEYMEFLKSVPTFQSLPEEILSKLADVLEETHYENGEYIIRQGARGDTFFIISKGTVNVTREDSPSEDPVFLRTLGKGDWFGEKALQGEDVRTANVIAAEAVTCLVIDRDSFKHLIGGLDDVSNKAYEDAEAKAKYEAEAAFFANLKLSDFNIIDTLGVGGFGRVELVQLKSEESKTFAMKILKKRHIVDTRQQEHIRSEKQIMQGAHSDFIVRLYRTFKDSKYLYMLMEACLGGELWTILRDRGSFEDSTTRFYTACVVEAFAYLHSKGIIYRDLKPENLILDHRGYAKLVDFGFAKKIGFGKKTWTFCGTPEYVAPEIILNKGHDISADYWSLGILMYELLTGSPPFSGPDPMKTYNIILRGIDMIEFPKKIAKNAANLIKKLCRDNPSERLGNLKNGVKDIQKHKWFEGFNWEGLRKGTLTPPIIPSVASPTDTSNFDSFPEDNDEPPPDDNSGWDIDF
Particulars: n=1, read-out: Percent inhibition, PRKG1.

Each structure is given as a SMILES string.

T1 sequence (Q02763 23-1124): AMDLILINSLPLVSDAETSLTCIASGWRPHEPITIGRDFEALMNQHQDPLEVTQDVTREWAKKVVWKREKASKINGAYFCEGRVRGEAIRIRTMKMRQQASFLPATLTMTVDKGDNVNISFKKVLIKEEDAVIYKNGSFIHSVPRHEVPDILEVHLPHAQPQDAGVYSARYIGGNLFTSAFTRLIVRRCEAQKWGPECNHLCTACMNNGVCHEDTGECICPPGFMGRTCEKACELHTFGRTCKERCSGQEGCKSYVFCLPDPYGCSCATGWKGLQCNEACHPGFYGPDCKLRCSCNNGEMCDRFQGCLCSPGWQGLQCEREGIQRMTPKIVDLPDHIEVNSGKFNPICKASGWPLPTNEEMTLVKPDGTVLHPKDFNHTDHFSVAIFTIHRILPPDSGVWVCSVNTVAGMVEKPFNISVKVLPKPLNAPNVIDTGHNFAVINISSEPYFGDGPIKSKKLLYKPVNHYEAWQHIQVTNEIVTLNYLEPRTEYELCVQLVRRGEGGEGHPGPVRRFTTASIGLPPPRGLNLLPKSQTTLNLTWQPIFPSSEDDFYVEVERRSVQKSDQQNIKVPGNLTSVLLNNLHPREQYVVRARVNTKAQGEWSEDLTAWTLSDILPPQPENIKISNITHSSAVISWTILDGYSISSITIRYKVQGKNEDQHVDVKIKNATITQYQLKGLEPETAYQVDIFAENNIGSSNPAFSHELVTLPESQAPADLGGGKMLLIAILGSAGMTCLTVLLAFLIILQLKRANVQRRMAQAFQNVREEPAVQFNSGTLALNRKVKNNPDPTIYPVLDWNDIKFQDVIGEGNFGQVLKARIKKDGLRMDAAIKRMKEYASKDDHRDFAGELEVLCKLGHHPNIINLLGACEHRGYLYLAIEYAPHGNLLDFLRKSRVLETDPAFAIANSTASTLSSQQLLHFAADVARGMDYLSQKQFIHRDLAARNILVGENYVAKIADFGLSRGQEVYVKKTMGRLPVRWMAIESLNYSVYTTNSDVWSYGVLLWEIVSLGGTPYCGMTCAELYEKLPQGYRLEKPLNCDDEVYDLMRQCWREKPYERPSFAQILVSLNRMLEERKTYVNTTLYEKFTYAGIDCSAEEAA

As for `CN1CCN(c2ccc(Nc3nccc(-c4cnn5ncccc45)n3)cc2C#N)CC1` [Compound 1], the inhibition at 10 µM came out at 0% at TIE2; 83.9% at PTK2B; 0% at ZAP70; 78.3% on SYK; 0% at TESK1; 87.2% at PTK2. Moreover, the inhibition at 10 µM on RAF1, at PRKX and on PRKG1 was 0% each time.
Consider `COc1ccc(Nc2nccc(-c3cnn4ncccc34)n2)cc1` [Compound 2], for which the inhibition at 10 µM came out at 0% on TIE2; 89.6% on PTK2B; 0% on ZAP70; 80.9% at SYK; 0% at TESK1; 99.3% at PTK2. In addition, the inhibition at 10 µM on RAF1, on PRKX and on PRKG1 was 0% in each case.
`Cc1ccc(O)cc1Nc1ccnc(Nc2cccc(C(N)=O)c2)n1` [Compound 3]: the inhibition at 10 µM at TIE2 came to 97.5%; on PTK2B, 83.8%; on ZAP70, 0%; at TESK1, 0%; at PTK2, 0%; on RAF1 it was 74.3%. In addition, the inhibition at 10 µM at PRKX and on PRKG1 was 0% in each case.
As for `Cc1ccc(O)cc1N(C)c1ccnc(Nc2cccc(S(N)(=O)=O)c2)n1` [Compound 4], the inhibition at 10 µM on TIE2 was 100%; on PTK2B, 99%; on ZAP70, 0%; at SYK, 98.7%; at TESK1, 79.9%; on PTK2, 93.4%. Besides, the inhibition at 10 µM on RAF1 stood at 94.2%; on PRKX it was 0%; on PRKG1 it was 0%.
As for `Fc1cccc(COc2ccc(Nc3ncnc4c3CN(CCN3CCOCC3)CC4)cc2Cl)c1` [Compound 6], the inhibition at 10 µM at TIE2, at PTK2B, on ZAP70, on SYK, on TESK1 and at PTK2 was 0% in each case. Further, the inhibition at 10 µM at RAF1, at PRKX and on PRKG1 was 0% in each case.
For the compound `COc1cc(Nc2nccc(-c3sc(N)nc3-c3cccc(NC(=O)c4c(F)cccc4F)c3)n2)cc(OC)c1OC` [Compound 7], the inhibition at 10 µM on TIE2 was 100%; at PTK2B, 99.9%; at ZAP70 it was 0%; on SYK, 98.9%; on TESK1 it was 100%; at PTK2, 97%. Moreover, the inhibition at 10 µM on RAF1 stood at 100%; at PRKX, 0%; on PRKG1, 0%.
With `C[C@@H](Oc1cc(-c2cnc3ccccn23)sc1C(N)=O)c1ccccc1Cl` [Compound 8], the inhibition at 10 µM at TIE2, on PTK2B, at ZAP70, on SYK, on TESK1 and at PTK2 was 0% each time. Besides, the inhibition at 10 µM on RAF1, at PRKX and at PRKG1 was 0% each time.
On to `c1ccc(COc2cccc(-c3ccnc4[nH]ccc34)c2)cc1` [Compound 9], for which the inhibition at 10 µM at TIE2, at PTK2B, at ZAP70, on SYK, on TESK1 and on PTK2 was 0% each time. In addition, the inhibition at 10 µM on RAF1, at PRKX and at PRKG1 was 0% in each case.
For the compound `Clc1ccc(Nc2ncc(-c3ccccc3)s2)cc1` [Compound 10], the inhibition at 10 µM at TIE2, on PTK2B, on ZAP70, on SYK, on TESK1 and at PTK2 was 0% each time. In addition, the inhibition at 10 µM at RAF1, at PRKX and at PRKG1 was 0% each time.
Consider `Nc1ncc2c(-c3ccncc3)c[nH]c2n1` [Compound 11], for which the inhibition at 10 µM amounted to 0% on TIE2; 0% on PTK2B; 0% at ZAP70; 75.9% on SYK; 0% on TESK1; 0% on PTK2. Also, the inhibition at 10 µM on RAF1, at PRKX and at PRKG1 was 0% each time.
